Data on 21 compounds can be found in patent US12528812B2 (Genentech, Inc., priority 2020, dated 2026).

Where two headings read alike, the source gives them in different places.

The term Ki denotes the dissociation constant of the complex between target and ligand, obtained from inhibition or displacement.

Experiment [1] has as its system IL-13-stimulated STAT6 phosphorylation in human lung bronchial epithelial BEAS-2B cell line. Put plainly: P-STAT6 BEAS-2B + IL-13 cell assay. The following applies: BEAS2B cells, IL13 stimulation, read-out: Cellular JAK1 PSTAT6 BEAS2B + IL13. It is filed as cell-based. The gist of the method:
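BEAS-2B cells grown 48 h at 37 °C, pre-treated 1 h with compound (10-point 1:2 dilution curve), then stimulated 15 min with human recombinant IL-13 (250 ng/mL stock). Lysate P-STAT6 (Tyr641) read by MSD sandwich ELISA with total-STAT6 capture; IC50 from four-parameter logistic fit of control-normalised data.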

In experiment [2] the target is T1, recombinant human JAK1 kinase domain protein (Residues 854-1154) (Homo sapiens, UniProt P23458).
T1 construct: human JAK1 kinase domain protein (Residues 854-1154); purchased Proteros Biostructures GmbH (Martinsried, Germany); host or cells: insect cells
T1 sequence (P23458 854-1154): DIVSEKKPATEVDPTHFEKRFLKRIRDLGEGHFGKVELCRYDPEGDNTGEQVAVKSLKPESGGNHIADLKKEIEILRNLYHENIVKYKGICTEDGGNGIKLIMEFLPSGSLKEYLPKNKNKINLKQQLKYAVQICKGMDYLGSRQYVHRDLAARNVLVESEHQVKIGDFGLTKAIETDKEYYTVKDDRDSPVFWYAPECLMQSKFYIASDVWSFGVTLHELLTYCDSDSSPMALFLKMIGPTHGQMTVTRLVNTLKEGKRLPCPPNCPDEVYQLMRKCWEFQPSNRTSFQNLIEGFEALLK
Put plainly: JAK1 biochemical assay (LabChip mobility shift, Ki). The settings on record: read-out: Biochem JAK1 Ki.

The target of experiment [3] is Recombinant human JAK2 kinase domain protein (Residues 812-1132) (Homo sapiens, UniProt O60674). Put plainly: JAK2 biochemical assay (LabChip mobility shift, Ki).
Sequence of Recombinant human JAK2 kinase domain protein (Residues 812-1132) (O60674 812-1132): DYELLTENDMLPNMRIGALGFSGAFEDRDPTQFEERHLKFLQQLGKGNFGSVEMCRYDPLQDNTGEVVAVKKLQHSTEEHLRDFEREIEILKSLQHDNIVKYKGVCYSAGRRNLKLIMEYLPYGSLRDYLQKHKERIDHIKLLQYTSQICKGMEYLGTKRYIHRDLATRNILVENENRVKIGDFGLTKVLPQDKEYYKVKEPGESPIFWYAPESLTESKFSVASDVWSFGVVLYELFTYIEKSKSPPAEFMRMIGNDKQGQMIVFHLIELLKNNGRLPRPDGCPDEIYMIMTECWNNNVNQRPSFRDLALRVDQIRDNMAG

Regarding `CN1CC(Cn2cc(Oc3ccc(OC(F)F)c(-c4nn(C)cc4NC(=O)c4cnn5cccnc45)c3)cn2)C1` [Example 127, N-[3-[2-(difluoromethoxy)-5-[1-[(1-methylazetidin-3-yl)methyl]pyrazol-4-yl]oxy-phenyl]-1-methyl-pyrazol-4-yl]pyrazolo[1,5-a]pyrimidine-3-carboxamide], the IC50 in experiment [1] (Homo sapiens, BEAS-2B) amounted to 46 nM. Also, the Ki amounted to 1.6 nM in experiment [2] and 1.5 nM in experiment [3] (Biochem JAK2 Ki).
Regarding `CN(C)C(=O)Cc1ccc(Oc2ccc(OC(F)F)c(-c3nn(C)cc3NC(=O)c3cnn4cccnc34)c2)cc1` [Example 129, N-[3-[2-(difluoromethoxy)-5-[4-[2-(dimethylamino)-2-oxo-ethyl]phenoxy]phenyl]-1-methyl-pyrazol-4-yl]pyrazolo[1,5-a]pyrimidine-3-carboxamide], the IC50 in experiment [1] (Homo sapiens, BEAS-2B) is 14 nM. Further, the Ki in experiment [2] came out at 0.27 nM; in experiment [3] (Biochem JAK2 Ki) it was 0.15 nM.
Take `CN(C)C(=O)c1ccc(Oc2ccc(OC(F)F)c(-c3n[nH]cc3NC(=O)c3cnn4cccnc34)c2)cc1` [Example 130, N-[3-[2-(difluoromethoxy)-5-[4-(dimethylcarbamoyl)phenoxy]phenyl]-1-1H-pyrazol-4-yl]pyrazolo[1,5-a]pyrimidine-3-carboxamide]: the IC50 in experiment [1] (Homo sapiens, BEAS-2B) stood at 24 nM. The Ki is 0.46 nM in experiment [2] and 0.23 nM in experiment [3] (Biochem JAK2 Ki).
Regarding `CNC(=O)c1ccc(Oc2ccc(OC(F)F)c(-c3nn(C)cc3NC(=O)c3cnn4cccnc34)c2)cc1` [Example 131, N-[3-[2-(difluoromethoxy)-5-[4-(methylcarbamoyl)phenoxy]phenyl]-1-methyl-pyrazol-4-yl]pyrazolo[1,5-a]pyrimidine-3-carboxamide], in experiment [1] (Homo sapiens, BEAS-2B), the IC50 was 23 nM. Further, the Ki in experiment [2] turned out to be 0.41 nM; in experiment [3] (Biochem JAK2 Ki), 0.24 nM.
Taken in the same sequence, the figures for `Cn1cc(NC(=O)c2cnn3cccnc23)c(-c2cc(Oc3cnn(C4CCC4O)c3)ccc2OC(F)F)n1` (stereo not drawn) [Example 134, N-[3-[2-(difluoromethoxy)-5-[1-(2-hydroxycyclobutyl)pyrazol-4-yl]oxy-phenyl]-1-methyl-pyrazol-4-yl]pyrazolo[1,5-a]pyrimidine-3-carboxamide] were 16 nM, 0.42 nM and 0.26 nM.
Turning to `Cn1cc(NC(=O)c2cnn3cccnc23)c(-c2cc(Oc3cnn(C4CCC4O)c3)ccc2OC(F)F)n1` (stereo not drawn) [Example 135, N-[3-[2-(difluoromethoxy)-5-[1-(2-hydroxycyc1obutyl)pyrazol-4-yl]oxy-phenyl]-1-methyl-pyrazol-4-yl]pyrazolo[1,5-a]pyrimidine-3-carboxamide], the IC50 in experiment [1] was determined as 15 nM. Besides, the values for the Ki in experiment [2] and in experiment [3] (Biochem JAK2 Ki) were 0.25 nM and 0.16 nM, respectively.
Regarding `Cn1cc(NC(=O)c2cnn3cccnc23)c(-c2cc(Oc3ccc(C(N)=O)cc3)ccc2OC(F)F)n1` [Example 136, N-[3-[5-(4-carbamoylphenoxy)-2-(difluoromethoxy)phenyl]-1-methyl-pyrazol-4-yl]pyrazolo[1,5-a]pyrimidine-3-carboxamide], the IC50 in experiment [1] (Homo sapiens, BEAS-2B) is 46 nM. Besides, the inhibitory constant (Ki) is 0.5 nM in experiment [2] and 0.23 nM in experiment [3] (Biochem JAK2 Ki).
Consider `O=C(Nc1c[nH]nc1-c1cc(Oc2cccc(C3(O)CNC3)c2)ccc1OC(F)F)c1cnn2cccnc12` [Example 137, N-[3-[2-(difluoromethoxy)-5-[3-(3-hydroxyazetidin-3-yl)phenoxy]phenyl]-1H-pyrazol-4-yl]pyrazolo[1,5-a]pyrimidine-3-carboxamide;2,2,2-trifluoroacetic acid], for which, in experiment [1], the IC50 came out at 1000 nM. Besides, the Ki stood at 0.82 nM in experiment [2] and 0.51 nM in experiment [3] (read-out: Biochem JAK2 Ki).
Turning to `CN1CC(O)(c2cccc(Oc3ccc(OC(F)F)c(-c4n[nH]cc4NC(=O)c4cnn5cccnc45)c3)c2)C1` [Example 138, N-[3-[2-(difluoromethoxy)-5-[3-(3-hydroxy-l-methyl-azetidin-3-yl)phenoxy]phenyl]-1H-pyrazol-4-yl]pyrazolo[1,5-a]pyrimidine-3-carboxamide], in experiment [1], the IC50 is 150 nM. For the same compound, the Ki in experiment [2] was 0.55 nM; in experiment [3] (read-out: Biochem JAK2 Ki) it was 0.4 nM.
As to `CN(C)C(=O)c1ccc(Oc2ccc(OC(F)F)c(-c3nn(C4COC4)cc3NC(=O)c3cnn4cccnc34)c2)cc1` [Example 142, 3-[2-(difluoromethoxy)-5-[4-(dimethylcarbamoyl)phenoxy]phenyl 1-1-(oxetan-3-yl)pyrazol-4-yl]pyrazolo[1,5-a]pyrimidine-3-carboxamide], the IC50 in experiment [1] (Homo sapiens, BEAS-2B) was found to be 22 nM. Also, the figures for the Ki in experiment [2] and in experiment [3] (Biochem JAK2 Ki) were 0.64 nM and 0.39 nM, respectively.
Take `CN1CC(CC#N)(c2ccc(Oc3ccc(OC(F)F)c(-c4nn(C)cc4NC(=O)c4cnn5cccnc45)c3)cc2)C1` [Example 145, N-[3-[5-[4-[3-(cyanomethyl)-1-methyl-azetidin-3-yl]phenoxy]-2-(difluoromethoxy)phenyl]-1-methyl-pyrazol-4-yl]pyrazolo[1,5-a]pyrimidine-3-carboxamide]: the IC50 in experiment [1] (Homo sapiens, BEAS-2B) is 160 nM. Moreover, the Ki in experiment [2] worked out at 5.5 nM; in experiment [3] (Biochem JAK2 Ki), 3.1 nM.
In the case of `CN1CCN(C(=O)Cc2ccc(Oc3ccc(OC(F)F)c(-c4nn(C)cc4NC(=O)c4cnn5cccnc45)c3)cc2)CC1` [Example 146, N-[3-[2-(difluoromethoxy)-5-[4-[2-(4-methylpiperazin-1-yl)-2-oxo-ethyl]phenoxy]phenyl]-1-methyl-pyrazol-4-yl]pyrazolo[1,5-a]pyrimidine-3-carboxamide], the IC50 in experiment [1] (Homo sapiens, BEAS-2B) turned out to be 40 nM. Moreover, the Ki in experiment [2] is 0.62 nM; in experiment [3] (Biochem JAK2 Ki), 0.29 nM.
With `Cn1cc(NC(=O)c2cnn3cccnc23)c(-c2cc(Oc3ccc(C4(CC#N)COC4)cc3)ccc2OC(F)F)n1` [Example 147], the IC50 in experiment [1] (Homo sapiens, BEAS-2B) stood at 19 nM. Further, the Ki in experiment [2] came to 0.28 nM; in experiment [3] (Biochem JAK2 Ki), 0.22 nM.
On the same counts, the results for `Cn1cc(NC(=O)c2cnn3cccnc23)c(-c2cc(Oc3ccc(C4(CC#N)CNC4)cc3)ccc2OC(F)F)n1` [Example 148, N-[3-[5-[4-[3-(cyanomethyl)azetidin-3-yl]phenoxy]-2-(difluoromethoxy)phenyl]-1-methyl-pyrazol-4-yl]pyrazolo[1,5-a]pyrimidine-3-carboxamide] are 210 nM, 3.6 nM and 1.9 nM.
On to `Cn1cc(NC(=O)c2cnn3cccnc23)c(-c2cc(Oc3ccc(CC(=O)N4CCC4)cc3)ccc2OC(F)F)n1` [Example 149, N-[3-[5-[4-[2-(azetidin-1-yl)-2-oxo-ethyl]phenoxy]-2-(difluoromethoxy)phenyl]-1-methyl-pyrazol-4-yl]pyrazolo[1,5-a]pyrimidine-3-carboxamide], for which the IC50 in experiment [1] (Homo sapiens, BEAS-2B) was 20 nM. The Ki was found to be 0.28 nM in experiment [2] and 0.17 nM in experiment [3] (Biochem JAK2 Ki).
On to `Cn1cc(NC(=O)c2cnn3cccnc23)c(-c2cc(Oc3ccc4c(c3)CNCC4)ccc2OC(F)F)n1` [Example 150, N-[3-[2-(difluoromethoxy)-5-(1,2,3,4-tetrahydroisoquinolin-7-yloxy)phenyl]-1-methyl-pyrazol-4-yl]pyrazolo[1,5-a]pyrimidine-3-carboxamide], for which the IC50 in experiment [1] (Homo sapiens, BEAS-2B) amounted to 16 nM. The inhibition constant (Ki) in experiment [2] came to 0.21 nM; in experiment [3] (Biochem JAK2 Ki), 0.22 nM.
Taken in the same sequence, the figures for `Cc1n[nH]cc1Oc1ccc(OC(F)F)c(-c2nn(C)cc2NC(=O)c2cnn3cccnc23)c1` [Example 151, N-[3-[2-(difluoromethoxy)-5-[(3-methyl-1H-pyrazol-4-yl)oxy]phenyl]-1-methy1-pyrazol-4-yl]pyrazolo[1,5-a]pyrimidine-3-carboxamide] were 19 nM, 0.29 nM and 0.2 nM.
For the compound `Cc1c(Oc2ccc(OC(F)F)c(-c3nn(C)cc3NC(=O)c3cnn4cccnc34)c2)cnn1C` [Example 152, N-[3-[2-(difluoromethoxy)-5-(1,5-dimethylpyrazol-4-yl)oxy-phenyl]-1-methyl-pyrazol-4-yl]pyrazol[1,5-a]pyrimidine-3-carboxamide], in experiment [1] (Homo sapiens, BEAS-2B), the IC50 stood at 20 nM. Besides, the Ki was determined as 0.31 nM in experiment [2] and 0.3 nM in experiment [3] (Biochem JAK2 Ki).
For the compound `Cc1nn(C)cc1Oc1ccc(OC(F)F)c(-c2nn(C)cc2NC(=O)c2cnn3cccnc23)c1` [Example 153, N-[3-[2-(difluoromethoxy)-5-(1,3-dimethylpyrazol-4-yl)oxy-phenyl]-1-methyl-pyrazol-4-yl]pyrazolo[1,5-a]pyrimidine-3-carboxamide], in experiment [1] (Homo sapiens, BEAS-2B), the IC50 was determined as 27 nM. In addition, the Ki in experiment [2] is 0.46 nM; in experiment [3] (Biochem JAK2 Ki) it was 0.23 nM.
As for `Cc1nn(CCO)cc1Oc1ccc(OC(F)F)c(-c2nn(C)cc2NC(=O)c2cnn3cccnc23)c1` [Example 154, N-[3-[2-(difluoromethoxy)-5-[1-(2-hydroxyethyl)-3-methyl-pyrazol-4-yl]oxy-phenyl]-1-methyl-pyrazol-4-yl]pyrazolo[1,5-a]pyrimidine-3-carboxamide], the IC50 in experiment [1] (Homo sapiens, BEAS-2B) was determined as 37 nM. For the same compound, the Ki in experiment [2] came out at 0.57 nM; in experiment [3] (Biochem JAK2 Ki), 0.29 nM.
Turning to `Cc1c(Oc2ccc(OC(F)F)c(-c3nn(C)cc3NC(=O)c3cnn4cccnc34)c2)cnn1CCO` [Example 155, N-[3-[2-(difluoromethoxy)-5-[1-(2-hydroxyethyl)-5-methyl-pyrazol-4-yl]oxy-phenyl]-1-methyl-pyrazol-4-yl]pyrazolo[1,5-a]pyrimidine-3-carboxamide], in experiment [1] (Homo sapiens, BEAS-2B), the IC50 turned out to be 25 nM. Besides, the inhibition constant Ki turned out to be 0.31 nM in experiment [2] and 0.21 nM in experiment [3] (Biochem JAK2 Ki).
